Values quoted from earlier work in US10104888B2, “Tannin-chitosan composites” (WISCONSIN ALUMNI RESEARCH FOUNDATION, priority 2009, dated 2018).

Conditions: in vivo

In the case of “poly(β-(1→4)-2-amino-2-deoxy-D-glucopyranose) [Chitosan]”, the LD50 is given as greater than 16000 mg/kg.
